Source: ChEMBL document CHEMBL5696442, “Discovery of type II inhibitors of TGFβ-activated kinase 1 (TAK1) and mitogen-activated protein kinase kinase kinase kinase 2 (MAP4K2)” (J Med Chem, 2015)
The source made the active and inactive calls. No cut-off for these calls is given here.

Legend:
[1] = target: TGF-beta receptor type-1 (Homo sapiens) (UniProt P36897); assay: Inhibition of TGFBR1 (unknown origin) at 1 uM by Ambit Kinomescan binding assay relative to control
[2] = target: Serine/threonine-protein kinase 4 (Homo sapiens) (UniProt Q13043); assay: Inhibition of MST1 Lys1 labeling site harbouring AIHKETGQIVAIKQVPVESDLQEIIK in human A-375 cells at 0.05 uM by KiNativ Profiling analysis relative to control
[3] = target: Phosphatidylinositol 4,5-bisphosphate 3-kinase catalytic subunit alpha isoform (Homo sapiens) (UniProt P42336); assay: Inhibition of PIK3CA ATP labeling site in human A-375 cells at 5 uM by KiNativ Profiling analysis relative to control; format: cell-based
[4] = target: Leucine-rich repeat serine/threonine-protein kinase 2 (Homo sapiens) (UniProt Q5S007); assay: Inhibition of LRRK2 (unknown origin) at 1 uM by Ambit Kinomescan binding assay relative to control; values are per cent of control
[5] = target: Serine/threonine-protein kinase 38-like (Homo sapiens) (UniProt Q9Y2H1); assay: Inhibition of NDR2 ACT labeling site in human A-375 cells at 0.5 uM by KiNativ Profiling analysis relative to control; format: cell-based
[6] = target: Cyclin-dependent kinase 11A (Homo sapiens) (UniProt Q9UQ88); assay: Inhibition of CDC2L2 (unknown origin) at 10 uM by Ambit Kinomescan binding assay relative to control; values are per cent of control
[7] = target: T1, Serine/threonine-protein kinase D1 (Homo sapiens) (UniProt Q15139); assay: Inhibition of PRKD1 (unknown origin) at 10 uM by Ambit Kinomescan binding assay
T1 sequence (whole entry): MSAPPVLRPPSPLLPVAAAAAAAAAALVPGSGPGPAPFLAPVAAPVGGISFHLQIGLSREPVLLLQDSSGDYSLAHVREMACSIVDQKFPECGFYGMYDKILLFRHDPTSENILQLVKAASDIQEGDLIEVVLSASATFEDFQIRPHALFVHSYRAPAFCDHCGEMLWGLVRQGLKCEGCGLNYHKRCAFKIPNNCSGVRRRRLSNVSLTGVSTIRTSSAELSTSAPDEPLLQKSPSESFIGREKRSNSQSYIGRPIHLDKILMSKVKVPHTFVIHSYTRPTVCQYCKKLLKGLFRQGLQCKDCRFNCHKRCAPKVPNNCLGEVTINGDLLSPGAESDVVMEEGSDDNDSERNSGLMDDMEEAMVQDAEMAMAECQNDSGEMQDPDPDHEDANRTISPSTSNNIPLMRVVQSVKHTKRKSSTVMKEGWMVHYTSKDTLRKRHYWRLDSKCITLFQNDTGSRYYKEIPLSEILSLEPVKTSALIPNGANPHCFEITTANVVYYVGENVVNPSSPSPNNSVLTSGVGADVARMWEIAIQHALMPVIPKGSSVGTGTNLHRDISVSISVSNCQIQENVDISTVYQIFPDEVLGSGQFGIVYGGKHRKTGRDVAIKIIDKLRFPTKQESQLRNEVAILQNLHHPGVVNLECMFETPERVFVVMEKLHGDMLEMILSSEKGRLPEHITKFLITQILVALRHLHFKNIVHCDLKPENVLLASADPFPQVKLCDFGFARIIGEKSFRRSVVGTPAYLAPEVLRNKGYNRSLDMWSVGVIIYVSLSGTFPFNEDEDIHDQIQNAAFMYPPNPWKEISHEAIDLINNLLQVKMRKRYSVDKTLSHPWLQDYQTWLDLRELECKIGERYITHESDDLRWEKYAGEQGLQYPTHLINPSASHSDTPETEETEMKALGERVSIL

[8] = target: Serine/threonine-protein kinase Nek4 (Homo sapiens) (UniProt P51957); assay: Inhibition of NEK4 Lys2 labeling site in human Huh-7 cell lysate at 1 uM by KiNativ Profiling analysis relative to control; format: subcellular
[9] = target: Calcium/calmodulin-dependent protein kinase type II subunit delta (Homo sapiens) (UniProt Q13557); assay: Inhibition of CaMK2d Lys1 labeling site harbouring IPTGQEYAAKIINTKK in human Huh-7 cell lysate at 1 uM by KiNativ Profiling analysis relative to control; format: subcellular
[10] = target: T2, Dual specificity mitogen-activated protein kinase kinase 7 (Homo sapiens) (UniProt O14733); assay: Inhibition of MAP2K7 Lys2 labeling site in human Huh-7 cell lysate at 1 uM by KiNativ Profiling analysis relative to control; format: subcellular
T2 sequence (whole entry): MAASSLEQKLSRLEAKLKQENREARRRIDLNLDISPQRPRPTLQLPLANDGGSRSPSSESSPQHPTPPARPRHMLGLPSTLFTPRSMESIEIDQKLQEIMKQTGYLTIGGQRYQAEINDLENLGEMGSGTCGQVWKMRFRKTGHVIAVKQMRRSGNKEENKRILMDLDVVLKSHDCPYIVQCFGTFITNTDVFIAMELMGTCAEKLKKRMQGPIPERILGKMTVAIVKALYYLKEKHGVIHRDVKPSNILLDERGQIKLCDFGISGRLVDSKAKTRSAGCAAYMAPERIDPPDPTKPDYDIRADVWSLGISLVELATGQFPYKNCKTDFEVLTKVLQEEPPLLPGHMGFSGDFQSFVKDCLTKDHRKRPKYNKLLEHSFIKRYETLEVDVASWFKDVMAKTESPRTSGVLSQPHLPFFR

[11] = target: Serine/threonine-protein kinase 16 (Homo sapiens) (UniProt O75716); assay: Inhibition of MPSK1 Lys2 labeling site in human Huh-7 cell lysate at 1 uM by KiNativ Profiling analysis relative to control; format: subcellular
[12] = target: Serine/threonine-protein kinase 4 (Homo sapiens) (UniProt Q13043); assay: Inhibition of MST1 Lys2 labeling site harbouring IHRDIKAGNILLNTEGHAK in human Huh-7 cells at 1 uM by KiNativ Profiling analysis relative to control
[13] = target: Dual specificity mitogen-activated protein kinase kinase 1 (Homo sapiens) (UniProt Q02750); assay: Inhibition of MAP2K1 Lys2 labeling site harbouring IMHRDVKPSNILVNSR in human Huh-7 cells at 1 uM by KiNativ Profiling analysis relative to control; format: cell-based
[14] = target: Cyclin-dependent kinase 17 (Homo sapiens) (UniProt Q00537); assay: Inhibition of PCTAIRE2 Lys2 labeling site harbouring DLKPQNLLINEKin human Huh-7 cells at 1 uM by KiNativ Profiling analysis relative to control; format: cell-based
[15] = target: Serine/threonine-protein kinase MARK2 (Homo sapiens) (UniProt Q7KZI7); assay: Inhibition of MARK2 Lys2 labeling site harbouring DLKAENLLLDADMNIK in human Huh-7 cell lysate at 1 uM by KiNativ Profiling analysis relative to control; format: subcellular
[16] = target: Serine/threonine-protein kinase PLK1 (Homo sapiens) (UniProt P53350); assay: Inhibition of PLK1 Lys1 labeling site harbouring EVFAGKIVPK in human Huh-7 cell lysate at 1 uM by KiNativ Profiling analysis relative to control; format: subcellular
Serine/threonine-protein kinase PLK1 (Homo sapiens), sequence (P53350 whole entry): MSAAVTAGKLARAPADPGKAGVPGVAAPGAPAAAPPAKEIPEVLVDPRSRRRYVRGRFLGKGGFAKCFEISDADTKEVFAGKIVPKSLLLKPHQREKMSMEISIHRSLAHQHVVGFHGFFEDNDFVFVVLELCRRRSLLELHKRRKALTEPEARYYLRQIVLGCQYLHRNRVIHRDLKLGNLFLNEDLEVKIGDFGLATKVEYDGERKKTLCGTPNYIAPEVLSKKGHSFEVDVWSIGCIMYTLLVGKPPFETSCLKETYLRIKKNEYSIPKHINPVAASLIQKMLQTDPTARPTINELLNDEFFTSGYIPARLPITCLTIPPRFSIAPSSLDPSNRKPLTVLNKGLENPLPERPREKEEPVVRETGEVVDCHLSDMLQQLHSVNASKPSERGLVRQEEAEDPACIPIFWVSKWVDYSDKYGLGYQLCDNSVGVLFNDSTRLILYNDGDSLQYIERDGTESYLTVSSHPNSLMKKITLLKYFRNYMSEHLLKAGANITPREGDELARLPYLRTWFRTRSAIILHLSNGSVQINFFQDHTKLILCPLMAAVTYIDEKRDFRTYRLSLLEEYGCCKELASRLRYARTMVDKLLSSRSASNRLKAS

Serine/threonine-protein kinase 4 (Homo sapiens), sequence (Q13043 whole entry, looked up, canonical isoform): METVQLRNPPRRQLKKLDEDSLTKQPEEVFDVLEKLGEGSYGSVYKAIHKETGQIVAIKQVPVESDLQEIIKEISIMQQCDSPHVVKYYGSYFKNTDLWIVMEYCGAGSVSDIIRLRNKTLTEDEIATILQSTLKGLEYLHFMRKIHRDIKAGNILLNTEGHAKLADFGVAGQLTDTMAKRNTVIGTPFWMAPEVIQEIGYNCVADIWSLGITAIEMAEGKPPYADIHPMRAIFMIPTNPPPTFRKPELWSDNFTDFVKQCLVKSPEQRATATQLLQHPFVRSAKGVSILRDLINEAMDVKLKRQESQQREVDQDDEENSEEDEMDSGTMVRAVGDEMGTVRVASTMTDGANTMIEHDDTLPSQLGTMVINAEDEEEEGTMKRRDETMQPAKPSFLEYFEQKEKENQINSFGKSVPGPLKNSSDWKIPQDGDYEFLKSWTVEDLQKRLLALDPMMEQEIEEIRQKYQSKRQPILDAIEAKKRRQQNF
Phosphatidylinositol 4,5-bisphosphate 3-kinase catalytic subunit alpha isoform (Homo sapiens), sequence (P42336 whole entry, canonical isoform): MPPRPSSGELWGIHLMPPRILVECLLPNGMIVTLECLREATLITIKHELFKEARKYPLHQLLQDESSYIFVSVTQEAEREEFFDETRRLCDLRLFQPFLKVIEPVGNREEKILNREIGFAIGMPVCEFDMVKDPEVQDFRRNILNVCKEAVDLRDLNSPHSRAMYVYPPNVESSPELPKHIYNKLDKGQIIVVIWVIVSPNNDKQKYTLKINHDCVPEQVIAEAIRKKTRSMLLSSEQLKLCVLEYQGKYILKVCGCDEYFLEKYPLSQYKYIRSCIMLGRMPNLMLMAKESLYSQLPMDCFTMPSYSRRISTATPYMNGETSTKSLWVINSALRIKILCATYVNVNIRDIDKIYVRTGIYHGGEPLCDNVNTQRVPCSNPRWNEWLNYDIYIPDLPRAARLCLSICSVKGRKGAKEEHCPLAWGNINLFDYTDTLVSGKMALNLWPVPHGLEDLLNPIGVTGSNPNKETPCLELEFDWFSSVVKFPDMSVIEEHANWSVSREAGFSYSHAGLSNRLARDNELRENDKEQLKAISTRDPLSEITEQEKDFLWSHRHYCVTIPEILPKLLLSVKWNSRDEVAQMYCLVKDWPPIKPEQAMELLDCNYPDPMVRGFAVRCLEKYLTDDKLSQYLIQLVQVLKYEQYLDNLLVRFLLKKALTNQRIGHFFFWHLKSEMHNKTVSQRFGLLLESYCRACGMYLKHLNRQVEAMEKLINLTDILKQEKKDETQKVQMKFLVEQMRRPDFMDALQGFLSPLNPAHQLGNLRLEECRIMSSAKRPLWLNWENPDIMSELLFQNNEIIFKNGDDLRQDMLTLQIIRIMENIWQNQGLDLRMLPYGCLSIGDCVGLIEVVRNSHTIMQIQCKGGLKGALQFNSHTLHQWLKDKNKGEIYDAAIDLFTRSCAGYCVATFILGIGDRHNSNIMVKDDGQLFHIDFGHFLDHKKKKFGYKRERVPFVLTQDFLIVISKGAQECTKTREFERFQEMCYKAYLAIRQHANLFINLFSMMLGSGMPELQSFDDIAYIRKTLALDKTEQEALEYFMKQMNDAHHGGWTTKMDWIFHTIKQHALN
Leucine-rich repeat serine/threonine-protein kinase 2 (Homo sapiens), sequence (Q5S007 whole entry): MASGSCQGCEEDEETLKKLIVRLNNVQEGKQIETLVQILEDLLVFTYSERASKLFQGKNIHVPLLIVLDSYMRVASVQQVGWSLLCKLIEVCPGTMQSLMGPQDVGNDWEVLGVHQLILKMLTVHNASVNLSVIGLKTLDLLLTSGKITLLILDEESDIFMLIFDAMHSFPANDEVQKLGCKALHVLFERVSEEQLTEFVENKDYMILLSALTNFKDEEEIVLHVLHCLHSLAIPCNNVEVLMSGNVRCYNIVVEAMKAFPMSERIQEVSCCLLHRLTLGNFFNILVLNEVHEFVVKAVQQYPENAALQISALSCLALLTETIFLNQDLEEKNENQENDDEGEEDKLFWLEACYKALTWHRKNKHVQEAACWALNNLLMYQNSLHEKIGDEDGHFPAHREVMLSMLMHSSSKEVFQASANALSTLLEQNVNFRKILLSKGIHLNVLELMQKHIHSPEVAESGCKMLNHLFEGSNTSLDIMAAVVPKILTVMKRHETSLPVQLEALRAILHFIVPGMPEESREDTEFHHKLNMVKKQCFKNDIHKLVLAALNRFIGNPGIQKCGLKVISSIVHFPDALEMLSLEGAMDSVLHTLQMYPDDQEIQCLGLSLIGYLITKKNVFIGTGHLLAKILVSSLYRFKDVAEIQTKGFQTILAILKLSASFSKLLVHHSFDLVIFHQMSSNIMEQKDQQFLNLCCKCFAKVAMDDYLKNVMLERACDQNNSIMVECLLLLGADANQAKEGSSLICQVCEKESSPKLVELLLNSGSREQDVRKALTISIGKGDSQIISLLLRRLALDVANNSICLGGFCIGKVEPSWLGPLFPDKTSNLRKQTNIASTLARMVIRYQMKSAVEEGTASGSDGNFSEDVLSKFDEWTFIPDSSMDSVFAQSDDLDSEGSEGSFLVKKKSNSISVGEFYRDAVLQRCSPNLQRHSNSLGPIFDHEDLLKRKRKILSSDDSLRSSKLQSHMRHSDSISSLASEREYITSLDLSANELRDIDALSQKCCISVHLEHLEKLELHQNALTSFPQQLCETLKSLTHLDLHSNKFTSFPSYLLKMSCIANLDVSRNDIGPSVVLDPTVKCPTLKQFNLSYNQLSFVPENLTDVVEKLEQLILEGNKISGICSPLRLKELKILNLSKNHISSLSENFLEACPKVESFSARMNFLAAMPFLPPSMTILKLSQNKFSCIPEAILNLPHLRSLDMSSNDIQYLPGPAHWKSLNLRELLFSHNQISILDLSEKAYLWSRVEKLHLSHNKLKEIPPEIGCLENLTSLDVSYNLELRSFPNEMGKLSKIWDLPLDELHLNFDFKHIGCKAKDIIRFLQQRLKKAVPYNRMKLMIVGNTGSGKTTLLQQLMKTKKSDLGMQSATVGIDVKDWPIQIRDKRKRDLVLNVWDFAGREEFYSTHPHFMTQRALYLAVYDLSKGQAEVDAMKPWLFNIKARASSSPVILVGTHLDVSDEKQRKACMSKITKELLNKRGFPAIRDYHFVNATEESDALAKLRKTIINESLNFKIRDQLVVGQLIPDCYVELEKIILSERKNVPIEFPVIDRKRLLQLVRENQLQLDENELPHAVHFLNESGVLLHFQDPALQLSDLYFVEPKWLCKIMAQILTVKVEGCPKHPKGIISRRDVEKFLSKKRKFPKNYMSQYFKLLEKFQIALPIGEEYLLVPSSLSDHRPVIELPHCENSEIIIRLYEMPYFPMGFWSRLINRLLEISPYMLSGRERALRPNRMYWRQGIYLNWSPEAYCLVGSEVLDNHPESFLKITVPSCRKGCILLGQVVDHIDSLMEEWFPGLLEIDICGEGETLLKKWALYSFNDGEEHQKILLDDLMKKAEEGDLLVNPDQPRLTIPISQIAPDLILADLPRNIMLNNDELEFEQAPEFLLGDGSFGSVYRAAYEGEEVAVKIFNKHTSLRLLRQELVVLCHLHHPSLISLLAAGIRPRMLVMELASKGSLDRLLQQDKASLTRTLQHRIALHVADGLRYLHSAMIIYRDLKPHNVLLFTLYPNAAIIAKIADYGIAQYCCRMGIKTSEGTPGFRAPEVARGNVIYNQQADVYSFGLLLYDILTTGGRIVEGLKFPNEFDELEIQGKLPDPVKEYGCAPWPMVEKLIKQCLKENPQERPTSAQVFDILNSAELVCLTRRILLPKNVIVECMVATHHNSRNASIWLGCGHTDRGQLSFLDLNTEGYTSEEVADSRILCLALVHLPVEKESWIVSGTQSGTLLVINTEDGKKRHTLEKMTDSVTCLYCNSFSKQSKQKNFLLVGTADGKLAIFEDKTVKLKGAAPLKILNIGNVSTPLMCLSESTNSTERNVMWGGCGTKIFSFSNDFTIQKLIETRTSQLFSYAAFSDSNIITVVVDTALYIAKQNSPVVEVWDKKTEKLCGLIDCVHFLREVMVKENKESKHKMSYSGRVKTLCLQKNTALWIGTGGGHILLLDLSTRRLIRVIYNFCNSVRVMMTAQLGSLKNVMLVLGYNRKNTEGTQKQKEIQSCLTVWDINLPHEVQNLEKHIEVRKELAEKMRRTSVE
Dual specificity mitogen-activated protein kinase kinase 1 (Homo sapiens), sequence (Q02750 whole entry): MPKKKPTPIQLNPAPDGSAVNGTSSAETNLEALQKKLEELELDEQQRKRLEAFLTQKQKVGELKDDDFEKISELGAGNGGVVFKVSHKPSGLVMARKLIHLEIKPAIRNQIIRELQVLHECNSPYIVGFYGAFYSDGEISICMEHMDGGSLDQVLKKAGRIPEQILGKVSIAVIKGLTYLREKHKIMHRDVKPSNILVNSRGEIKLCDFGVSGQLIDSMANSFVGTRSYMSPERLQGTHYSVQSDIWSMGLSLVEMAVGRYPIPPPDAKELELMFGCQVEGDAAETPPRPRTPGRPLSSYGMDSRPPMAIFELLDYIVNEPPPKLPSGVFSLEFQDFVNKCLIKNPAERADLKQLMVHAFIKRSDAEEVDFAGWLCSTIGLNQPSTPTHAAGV

`CCN1CCN(Cc2ccc(NC(=O)c3ccc(C)c(/C=C/c4cnc5[nH]ccc5c4OC)c3)cc2C(F)(F)F)CC1` gave an inhibition [1] of 100%, an inhibition [2] of 0.6% and an inhibition [3] of 56.9%. For the same compound, the residual activity [4] was 53%.
With `CCN1CCN(Cc2ccc(NC(=O)c3ccc(C)c(Oc4ccnc5[nH]ccc45)c3)cc2C(F)(F)F)CC1` the inhibition [5] was -4.5%, the percent of control [6] was 0.05% and the inhibition [7] was “inactive”.
Compound `CNc1cc(Oc2cc(C(=O)Nc3cc(N4CCN(C)CC4)cc(C(F)(F)F)c3)ccc2C)ncn1` has an inhibition [8] of -2.2%, an inhibition [9] of 15.4% and an inhibition [10] of 2.7%. The inhibition [11] was 4.6%, the inhibition [12] was -0.8% and the inhibition [13] was 16.6%. The inhibition [14] was -2.1%, the inhibition [15] was -4.1% and the inhibition [16] was 1.8%.
